# In patent US9629848B2, “Compounds that modulate autoimmunity and methods of using the same” (The Regents of the University of Colorado, a body corporate, priority 2011, dated 2017):
# Like-named read-outs stand apart in the source and are kept apart here. Non-standard residues stand in square brackets, D forms with d. Residues, ends and D or L forms follow the SMILES beside them. ξ: configuration not given here. ξY = NC(Cc1ccc(O)cc1)C(=O)O; Nva = CCC[CH](N)C(=O)O
# Target: DQ8 (Homo sapiens, UniProt P01909+P01920, A209T/A45G/C70Q/D89A/DUP78-78/E183D/E77G/F237L/G63E/H199R/I129T/K197E/L178F/L74F/L98V/Q57E/Q76R/S185I/S97I/T217I/T49S/V73L/Y58L)
# Test: Competitive binding assay B:9-23 to DQ8
# [1] = >100 uM means some effect at 100 uM but not 50% inhibition, < means lower concentrations not used
Compound,IC50,Competitive Binding Assay B:9-23 to DQ8 (IC50) [1],further results
N=C(N)NC(=N)Nc1ccccc1Cl [p4:1],> 100 µM,,
[H]/N=C(\N/C(N)=N/[H])Nc1ccc([N+](=O)[O-])cc1 [p4:2],,No inhibition,
[H]/N=C(\NCC[N+](C)(C)C)NN([O-])O [p4:3],,No inhibition,
[H]/N=C(/N/N=C/c1ccncc1)NN(O)O [p4:4],,,Competitive Binding Assay B:9-23 to DQ8 (IC50): No inhibition
CC1CNC2C(=O)NC(=O)NC2N1 (stereo not shown) [p4:5],> 100 µM,,
CN(Cc1ccccc1)Cn1ccnc1 [p4:6],,No inhibition,
[H]/N=C(\NCCN(C)C)NN(O)O [p4:7],< 100 µM,,
[H]/N=C(\NCCOC(C)=O)NN(O)O [p4:8],,No inhibition,
NC(=O)N/N=C/C1CNCCN1 (stereo not shown) [p4:9],,No inhibition,
[H]/N=C(/Nc1ccc(Cl)cc1)NN(O)O [p4:12],> 100 µM,,
c1cc[n+](CC[n+]2ccccc2)cc1 [p4:13],,No inhibition,
NC(Cn1ccc(=O)c(O)c1)C(=O)O (stereo not shown) [p4:14],,No inhibition,
Clc1ccc(Cl)c(OCC2=NCCN2)c1 [p4:15],> 100 µM,,
[H]/N=C(\NN(O)O)NS(=O)(=O)c1ccccc1 [p4:17],> 100 µM,,
[H]/N=C(\N)NCCC(N)C(=O)O (stereo not shown) [p4:18],,No inhibition,
[H]/N=C(\NCCCCl)NN(O)O [p4:19],> 100 µM,,
CCCC(N)C(=O)NC(C(=O)O)C(C)C (stereo not shown) [p4:20] (H-[Nva]-Val-OH; configuration not given here),> 100 µM,,
c1ccc(CCN2CCCCCCCC2)nc1 [p4:21],,No inhibition,
Oc1ncnc2[nH]c(C(O)c3ccccc3)nc12 (stereo not shown) [p4:22],> 100 µM,,
NC(=O)N/N=C/Cn1cc([N+](=O)[O-])c(=O)[nH]c1=O [p4:23],> 100 µM,,
[H]/N=C(\NCCC#N)NN(O)O [p4:24],,No inhibition,
[H]/N=C(\NCCS(C)(=O)=O)NN(O)O [p4:26],,No inhibition,

Compound,IC50,Competitive Binding Assay B:9-23 to DQ8 (IC50) [1],further results
[H]/N=C(/NCc1ccccc1)NN(O)O [p4:28],> 100 µM,,
CCC(N)C(O)c1ccccc1 (stereo not shown) [p4:30],,,Competitive Binding Assay B:9-23 to DQ8 (IC50): No inhibition
[H]/N=C(\NCCOC)NN(O)O [p4:31],> 100 µM,,
CC1C(c2ccccc2)OCN1C (stereo not shown) [p4:32],< 100 µM,,
OC1CN(Cc2ccccc2)CC1O (stereo not shown) [p4:33],,No inhibition,
NC(CCCC(N)C(=O)O)C(=O)O (stereo not shown) [p4:34],> 100 µM,,
CCCCN(C)C12CN3CN(CN(C3)C1)C2 [p4:35],> 100 µM,,
C[N+]1(C/C=C/Cl)CN2CNCN(C2)C1 (stereo not shown) [p6:2],,No inhibition,
NC1CC2NC3CCCCC3NC2CC1N (stereo not shown) [p6:7],,No inhibition,
C[N+]1(C/C=C/CCl)CN2CNCN(C2)C1 (stereo not shown) [p6:8],,No inhibition,
CN1C(=O)C(N)C(N)N(C)C1=O (stereo not shown) [p6:16],,No inhibition,
NCc1c(Cl)c(Cl)c(Cl)c(CN)c1Cl [p6:19],> 100 µM,,
COC(=O)C(C=C(Cl)Cl)N1CCNCC1 (stereo not shown) [p6:23],> 100 µM,,
NCC(=O)NC(Cc1ccc(O)cc1)C(=O)O (stereo not shown) [p6:24] (H-Gly-[ξY]-OH),> 100 µM,,
C1CCCNCCNCCNCC1 [p6:27],,No inhibition,
CC1(CO)COC(=O)C(C)(C2(C)NC(C)(CO)COC2=O)N1 (stereo not shown) [p6:28],,No inhibition,
NC1(COS(=O)(=O)O)CCN1 (stereo not shown) [p6:30],,No inhibition,
O=C1CN(C2CCCCC2N2CC(=O)NC(=O)C2)CC(=O)N1 (stereo not shown) [p6:31],,No inhibition,
C=CC(OC(=O)CC)(c1ccccc1)C1CCNCC1 (stereo not shown) [p6:32],,,Competitive Binding Assay B:9-23 to DQ8 (IC50): No inhibition
N=C(N)c1ccc(/C=C/c2ccc(C(=N)N)cc2)cc1 [p6:33],,No inhibition,
CC(=O)N1C(=O)C2(NCCCN2)c2ccccc21 [p6:34],< 100 µM,,
